For twelve molecules, Activity results are on record in ChEMBL document CHEMBL1158779, “Sulfur-containing polybromoindoles from the Formosan red alga Laurencia brongniartii” (J Nat Prod, 2005).

Active and inactive are the calls of the source. The rule behind the calls is not given here.

The test system of one assay is HT-29. Description: Cytotoxicity against human HT-29 cells. The format is functional, cell-based.
Another assay deals with P388. Description: Cytotoxicity against mouse P388 cells. In kind it is functional, cell-based.

Turning to `C[S+]([O-])c1[nH]c2cc(Br)cc(Br)c2c1-c1c([S+](C)[O-])[nH]c2cc(Br)cc(Br)c12` (centres undefined), the outcome with HT-29 was inactive. The outcome in the assay with P388 was Active.
The corresponding values for `CSc1c(Br)[nH]c2cc(Br)cc(Br)c12` are “inactive” and “inactive”.
Take `CSc1[nH]c2cc(Br)c(Br)c(Br)c2c1SC`: the outcome with HT-29 and in the assay with P388 was inactive.
With `CSc1c([S+](C)[O-])[nH]c2cc(Br)c(Br)c(Br)c12` (centres undefined), the result in the assay with HT-29 and in the assay with P388 was inactive.
On to `CSc1[nH]c2cc(Br)cc(Br)c2c1SC`, for which the outcome in the assay on HT-29 and in the assay with P388 was inactive.
As for `CSc1[nH]c2cc(Br)cc(Br)c2c1-c1c(SC)[nH]c2cc(Br)cc(Br)c12`, the outcome in the assay on HT-29 and in the assay with P388 was inactive.
Take `C[S+]([O-])c1[nH]c2cc(Br)cc(Br)c2c1[S+](C)[O-]` (centres undefined): the result in the assay on HT-29 and with P388 was inactive.
On to `C[S+]([O-])c1c(Br)[nH]c2cc(Br)cc(Br)c12` (centres undefined), for which the outcome with HT-29 and in the assay on P388 was inactive.
On to `CSc1cc2c(Br)cc(Br)cc2[nH]1`, for which the outcome in the assay with HT-29 and in the assay with P388 was inactive.
Take `CSc1c([S+](C)[O-])[nH]c2cc(Br)cc(Br)c12` (centres undefined): the result in the assay on HT-29 and with P388 was inactive.
For the molecule `CSc1c(Br)[nH]c2cc(Br)c(Br)c(Br)c12`, the outcome in the assay on HT-29 and in the assay with P388 was inactive.
For `CSc1[nH]c2cc(Br)cc(Br)c2c1-c1c([S+](C)[O-])[nH]c2cc(Br)cc(Br)c12` (centres undefined), the outcome in the assay on HT-29 and in the assay on P388 was Active.
